Data taken from PubChem BioAssay (NCI).
Several values for one entry are separate records, joined by “and”; a condition that tells them apart may be missing. Identical values can stand only once.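 1) Cells in 96-well plates. 2) Compound, 48 h, 5 concentrations. 3) Linear interpolation between surrounding doses. 4) Unreached endpoint = highest concentration. GI50: concentration for 50% inhibition of growth. TGI: total growth inhibition.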 Where a SMILES comes first, the peptide text is derived from it. [ ]: non-standard residue; d: D form. Ac5c = NC1(C(=O)O)CCCC1

Assays:
Test in all cases: growth of human tumour cells (NCI), 48 h
[1] = system: BT-549 breast
[2] = system: MCF7 breast
[3] = system: MDA-MB-435
[4] = system: T-47D breast
[5] = system: SNB-78 CNS
[6] = system: XF 498 CNS
[7] = system: DMS 273 small cell lung
[8] = system: HOP-18 NSCLC

Compound: O=C1c2ccccc2-c2c1c1ccccc1c(=O)n2CCCNCCCn1ccnc1
- GI50 [1]: 1.07 µM
- TGI [1]: 7.11 µM
- GI50 [2]: 0.772 µM
- TGI [2]: 12.7 µM
- GI50 [3]: 1.72 µM
- TGI [3]: 5.51 µM
- GI50 [4]: 5.78 µM
- TGI [4]: 21.1 µM

Compound: Nc1ccc(N(S(=O)(=O)c2ccccc2)S(=O)(=O)c2ccccc2)c(Cl)c1
- TGI [1]: > 100 µM
- TGI [2]: > 100 µM
- TGI [3]: > 100 µM
- TGI [4]: > 100 µM

Compound: COc1cc(/C=C(\C#N)C(=O)c2ccccc2)ccc1OCc1ccccc1
- TGI [5]: > 100 µM
- TGI [6]: > 100 µM

Compound: CN1CCN(CCCN)CC1
- TGI [1]: > 100 µM
- TGI [2]: > 100 µM
- TGI [3]: > 100 µM
- TGI [4]: > 100 µM

Compound: Cc1cc(C)c([O-])c(CN(C)CCN(C)Cc2cc(C)cc(C)c2[O-])c1.O=C([O-])c1cccc(C(=O)[O-])n1.[Ti+4]
- GI50 [2]: 3.17 µM
- TGI [2]: > 100 µM
- GI50 [3]: 2.89 µM
- TGI [3]: > 100 µM
- GI50 [4]: 1.28 µM
- TGI [4]: > 100 µM

Compound: CC(O)c1cccc(NCc2c3ccccc3c(=O)n3c2oc2ccccc23)c1 (centres undefined)
- GI50 [1]: 3.95 µM
- TGI [1]: 14.7 µM
- GI50 [2]: > 100 µM
- TGI [2]: > 100 µM
- GI50 [3]: 18.4 µM
- TGI [3]: > 100 µM
- GI50 [4]: 14.4 µM
- TGI [4]: 64.6 µM

Compound: O=Cc1ccc(-c2cc(C=O)c(-c3cccs3)[nH]2)s1
- GI50 [1]: > 100 µM
- TGI [1]: 75 µM and > 100 µM
- GI50 [2]: 7.36 µM
- TGI [2]: 75 µM and > 100 µM
- GI50 [3]: 43.7 µM
- TGI [3]: 75 µM and > 100 µM
- GI50 [4]: 18.2 µM
- TGI [4]: 49.6 µM and > 100 µM

Compound: CC(=O)c1cccc(N2COC(C)(C)c3nc4ccccc4n3C2)c1
- TGI [7]: > 100 µM
- TGI [8]: > 100 µM
- TGI [5]: > 100 µM
- TGI [6]: > 100 µM

Compound: O=C1Nc2ccc(C(=O)c3ccco3)cc2/C1=C/c1cc(Cl)c(O)c(Cl)c1
- GI50 [1]: 3.54 µM
- TGI [1]: 10.5 µM
- GI50 [2]: 6.1 µM
- TGI [2]: > 25 µM
- GI50 [3]: 4.11 µM
- TGI [3]: 24.2 µM
- GI50 [4]: 7.17 µM
- TGI [4]: > 25 µM

Compound: CCOC(=O)C(Cc1c[nH]c2ccc(N)cc12)(NC(C)=O)C(=O)OCC
- GI50 [1]: 588 µM
- TGI [1]: > 1000 µM
- GI50 [2]: > 1000 µM
- TGI [2]: > 1000 µM
- GI50 [3]: > 1000 µM
- TGI [3]: > 1000 µM
- GI50 [4]: 728 µM
- TGI [4]: > 1000 µM

Compound: Cc1cc(I)cc(CN(C)CCCN2CCSCC2)c1O
- GI50 [1]: 14.8 µM
- TGI [1]: 32.6 µM
- GI50 [2]: 18.5 µM
- TGI [2]: 40.5 µM
- GI50 [3]: 23.2 µM
- TGI [3]: 57.5 µM
- GI50 [4]: 31.3 µM
- TGI [4]: > 100 µM

Compound: CC12OC(c3ccccc3)=CC(c3ccc(Cl)cc3)=C1C(c1ccccc1)=CC2=O (centres undefined)
- GI50 [1]: > 100 µM
- TGI [1]: > 100 µM
- GI50 [2]: 60.8 µM
- TGI [2]: > 100 µM
- GI50 [3]: 81.3 µM
- TGI [3]: > 100 µM
- GI50 [4]: 35.8 µM
- TGI [4]: > 100 µM

Compound: COC(=O)CCc1cc(OC)c2c(c1)C(C(=O)OC)C(c1ccc(OC)c(OC)c1)O2 (centres undefined)
- TGI [1]: > 100 µM
- TGI [2]: > 100 µM
- TGI [4]: > 100 µM

Compound: CN[C@@H](C)C(=O)N[C@H](C(=O)N1CCC[C@H]1C(=O)N[C@H]1c2ccccc2C[C@H]1OCC#CC#CCO[C@@H]1Cc2ccccc2[C@@H]1NC(=O)[C@@H]1CCCN1C(=O)[C@@H](NC(=O)[C@H](C)NC)C1CCCCC1)C1CCCCC1
- GI50 [1]: < 0.01 µM
- GI50 [2]: 1.47 µM
- TGI [2]: 3.23 µM
- GI50 [4]: 1.81 µM
- TGI [4]: 4.39 µM

Compound: CC(C)c1ccc(C(=O)Nc2nc3ccc(O)cc3s2)cc1
- GI50 [1]: 2.8 µM
- TGI [1]: > 100 µM
- GI50 [2]: 0.442 µM
- TGI [2]: 48.2 µM
- GI50 [3]: 0.443 µM
- TGI [3]: > 100 µM
- GI50 [4]: 0.715 µM
- TGI [4]: > 100 µM

Compound: CSc1ccc(C2=NN(C(=O)c3ccc(F)cc3)C(c3ccc(F)cc3)C2)cc1 (centres undefined)
- GI50 [1]: 15.1 µM
- TGI [1]: 30 µM
- GI50 [2]: 4.98 µM
- TGI [2]: 17.9 µM
- GI50 [3]: 10.6 µM
- TGI [3]: 26.8 µM
- GI50 [4]: 12.2 µM
- TGI [4]: 31.2 µM

Compound: COc1cc(C(=O)/C(C)=C/c2c[nH]c3ccccc23)cc(OC)c1OC
- GI50 [1]: 0.00583 µM
- GI50 [2]: 0.00357 µM
- TGI [2]: > 100 µM
- GI50 [3]: 0.00232 µM
- TGI [3]: 0.00633 µM
- GI50 [4]: 2.46 µM
- TGI [4]: > 100 µM

Compound: Cc1ccccc1NC(=O)N/C(N)=N/c1nc(-c2cccc([N+](=O)[O-])c2)cs1
- GI50 [1]: 2.16 µM
- TGI [1]: 5.37 µM
- GI50 [2]: 1.47 µM
- TGI [2]: > 100 µM
- GI50 [3]: 0.505 µM
- TGI [3]: 4.51 µM
- GI50 [4]: 3.2 µM
- TGI [4]: > 100 µM

Compound: NC1(C(=O)NC2(C(=O)O)CCCC2)CCCC1 (H-[Ac5c]-[Ac5c]-OH)
- TGI [1]: > 100 µM
- TGI [2]: > 100 µM
- TGI [3]: > 100 µM
- TGI [4]: > 100 µM

Compound: COc1cc(/C=C/C(=O)CC(=O)/C=C/c2cc(OC)c(OC)c(OC)c2)cc(OC)c1OC
- GI50 [1]: 4.28 µM
- TGI [1]: 22.1 µM
- GI50 [2]: 2.13 µM
- TGI [2]: > 100 µM
- GI50 [3]: 2.52 µM
- TGI [3]: 7.23 µM
- GI50 [4]: 3.98 µM
- TGI [4]: 84.5 µM

Compound: COc1cc(OC)cc(C2CC(=O)Nc3c2c(C)nn3-c2nc3ccccc3[nH]2)c1 (centres undefined)
- GI50 [1]: 2.46 µM
- TGI [1]: 7.86 µM
- GI50 [2]: 2.94 µM
- TGI [2]: > 100 µM
- GI50 [3]: 2.76 µM
- TGI [3]: 7.88 µM
- GI50 [4]: 3.5 µM
- TGI [4]: > 100 µM

Compound: CCCCCCCCC[C@@H]1CC(=O)OCC2OC(O[C@H](CCCCCCCCC)CC(=O)OCC3OC(O[C@H](CCCCCCCCC)CC(=O)OCC4OC(O1)C(O)C(O)C4O)C(O)C(O)C3O)C(O)C(O)C2O (some centres undefined)
- TGI [7]: 21.6 µM
- TGI [8]: 0.0797 µM
- TGI [5]: 34.6 µM
- TGI [6]: 23.3 µM

Compound: Nc1c(C(=O)c2ccc(Cl)cc2)sc(Nc2ccccc2)c1-c1nc2ccccc2s1
- GI50 [1]: 2.29 µM
- TGI [1]: 19.5 µM
- GI50 [2]: 1.65 µM
- TGI [2]: > 100 µM
- GI50 [4]: 1.46 µM
- TGI [4]: > 100 µM

Compound: CC(=O)Nc1ccc(C(=O)NN2C(=O)C(Cl)C2c2ccc(Cl)cc2)cc1 (centres undefined)
- TGI [1]: > 100 µM
- TGI [8]: > 100 µM
- TGI [2]: > 100 µM
- TGI [3]: > 100 µM
- TGI [4]: > 100 µM

Compound: COc1cc(OC)c(/C=C/S(=O)(=O)Cc2cnc(OC)c(N)c2)c(OC)c1
- GI50 [1]: < 0.0256 µM
- TGI [1]: > 74.6 µM
- GI50 [2]: < 0.0155 µM
- TGI [2]: > 100 µM

Compound: CCNC(=O)CCN(C(=O)O)S(=O)(=O)c1ccc(NC(=O)c2ccccc2)cc1
- TGI [7]: 41.3 µM
- TGI [8]: > 100 µM
- TGI [5]: > 100 µM
- TGI [6]: > 100 µM

Compound: O=S(=O)(NC1=NCCN1C(=S)SN1CCn2c1nsc2=S)c1ccc(Br)cc1
- GI50 [2]: 31.7 µM
- TGI [2]: > 100 µM
- GI50 [3]: 27.6 µM
- TGI [3]: > 100 µM
- GI50 [4]: 43.5 µM
- TGI [4]: > 100 µM
